Laboratory results from patent US20170360863A1, “USE OF POLYACETYLENIC GLYCOSIDES FOR SUPPRESSION OF GRANULOCYTIC MYELOID-DERIVED SUPPRESSOR CELL ACTIVITIES AND TUMOR METASTASIS” (Academia Sinica, priority 2014, published 2017).

What was measured:
[1] = system: granulocytic and monocytic MDSCs; assay: MDSC populations in organs of tumor-resected mice (flow cytometry); format: in vivo, BALB/c mice; conditions: 23 days post tumor resection
From the text: Lung tissues of test mice were harvested and minced with 150 U/mL Type I Collagenase in tissue grinders for 20 to 50 times. After digestion and lysed with ACK buffer, grinded tissues were collected and filtered through 40 μm cell strainer. Spleen tissues were minced gently with PBS in tissue grinders. After lysed with ACK buffer, cells were collected for further analysis. Blood were lysed with ACK buffer for 3 times and harvested for further analysis. All cells were collected and stained with anti-CD11b, and anti-Ly6G/Ly-6C for flow cytometry analysis.
The myeloid derived suppressor cell (MDSC) populations in spleen tissue of each test group were investigated.
(§1) Mice were sacrificed at 23 days post tumor resection, lung, liver and spleen of test mice were excised and tumor metastasis measured by bioluminescent imaging.

[2] = system: 4T1-luc2 tumor metastasis; assay: 4T1-luc2 tumor resection model, tumor metastasis; format: in vivo, BALB/c mice; conditions: 23 days post tumor resection
Experimental: 4T1-luc2 cells (5×10^5 cells/100 μl PBS) were orthotopically implanted into mammary fat-pad of BALB/c mice. Primary tumor growth was evaluated by measuring tumor weight and by monitoring bioluminescent imaging of mammary tumors (BL1) every 7 days. For tumor resection mouse model, 4T1-luc2 cells (5×10^5 cells/100 μl PBS) were orthotopically implanted into mammary fat pad of test mice. At day 21 post tumor implantation, the tumor mass was gently surgically removed. Bioluminescent imaging of metastatic tumor was monitored by using Non-invasive in vivo imaging system (IVIS). The body weight of the test mouse was approximately 25 g.
For this experiment, at 21 days post orthotopic tumor implantation, the tissue mass of 4T1-luc2 tumors in test mice was surgically removed.
At 21 days post implantation, the tumor mass was surgically removed gently. Following surgery, each treatment group was randomly divided into control, F1 and the docetaxel groups (i.e., via iv injection with 10 mg docetaxel/kg every other 3 days). […] The BLI values for each mouse was quantitatively measured and pooled for each test group.
as §1

With `CC(=O)O[C@@]12CO[C@@H]1C[C@H](O)[C@@]1(C)C(=O)[C@H](O)C3=C(C)[C@@H](OC(=O)[C@H](O)[C@@H](NC(=O)OC(C)(C)C)c4ccccc4)C[C@@](O)([C@@H](OC(=O)c4ccccc4)[C@H]21)C3(C)C` [docetaxel] the “4T1 tumor-induced accumulation of granulocytic MDSCs in lung, peripheral blood and spleen” value [1] was “significantly reduced”, the “tumor metastasis into lung (bioluminescent imaging of excised organs)” value [2] was “effectively inhibited” and the “BLI value (bioluminescent imaging, whole body)” value ([2]; BP-E-F1 oral 5 mg/kg/day, docetaxel iv 10 mg/kg every other 3 days) was “effectively reduce”. It also gave a metastasis rate ([2]; F1 oral 5 mg/kg/day, docetaxel iv 10 mg/kg every other 3 days) of 12.5%.
